Earlier results on four compounds are cited in publication PMC7163368 (British Journal of Clinical Pharmacology, 2020).

The conditions of this series: cited from earlier work.

SMILES strings stand for the structures.

As for `CC#CCn1c(N2CCC[C@@H](N)C2)nc2c1c(=O)n(Cc1nc(C)c3ccccc3n1)c(=O)n2C` [linagliptin], under “currently available oral gliptines”, the “Terminal half‐life” value is 105 h.
With `N#C[C@@H]1C[C@@H]2C[C@@H]2N1C(=O)[C@@H](N)C12CC3CC(CC(O)(C3)C1)C2` [saxagliptin], the Oral bioavailability is recorded as 67%.
Consider `N[C@@H](CC(=O)N1CCn2c(nnc2C(F)(F)F)C1)Cc1cc(F)c(F)cc1F` [sitagliptin], for which the “Plasma levels higher in female subjects” value (female vs male subjects) is listed as “approximately 25%”.
For the compound `N#C[C@@H]1CCCN1C(=O)CNC12CC3CC(CC(O)(C3)C1)C2` [vildagliptin], the Oral bioavailability is recorded as 85%.
